The values below come from BindingDB's records for doi:10.1016/s0960-894x(02)00988-5 (Merck Research Laboratories, 2003).

One assay is described as follows: Inhibition over 48 hr of BAL strain HIV infrction of HeLa Magi cells expressing CCR5.
In turn, `CCCN(c1ccccn1)C1CCN(C[C@H]2CN(C(=O)C3CCCCC3)C[C@@H]2c2ccccc2)CC1` [cyclohexyl((3S,4S)-3-phenyl-4-((4-(propyl(pyridin-2-yl)amino)piperidin-1-yl)methyl)pyrrolidin-1-yl)methanone] displayed a 50% inhibitory concentration (IC50) of 0.1 µM. Compound `CCCN(c1ccccn1)C1CCN(C[C@H]2CN(C(=O)N3CCCC3)C[C@@H]2c2ccccc2)CC1` [{(3S,4S)-3-Phenyl-4-[4-(propyl-pyridin-2-yl-amino)-piperidin-1-ylmethyl]-pyrrolidin-1-yl}-pyrrolidin-1-yl-methanone] registered an IC50 of 0.3 µM.

Turning to `CCCN(c1ccccn1)C1CCN(C[C@H]2CN([C@@H](C(=O)O)C3CCCCC3)C[C@@H]2c2ccccc2)CC1` [(R)-Cyclohexyl-{(3S,4S)-3-phenyl-4-[4-(propyl-pyridin-2-yl-amino)-piperidin-1-ylmethyl]-pyrrolidin-1-yl}-acetic acid], the IC50 is 0.1 µM.

Regarding `CCCN(c1ccncn1)C1CCN(C[C@H]2CN([C@H](CC3CCC3)C(=O)O)C[C@@H]2c2cccc(F)c2)CC1` [(R)-3-Cyclobutyl-2-{(3S,4S)-3-(3-fluoro-phenyl)-4-[4-(propyl-pyrimidin-4-yl-amino)-piperidin-1-ylmethyl]-pyrrolidin-1-yl}-propionic acid], the IC50 was 0.033 µM. On to `CCCN(c1ncccn1)C1CCN(C[C@H]2CN([C@@H](C(=O)O)C3CCCCC3)C[C@@H]2c2ccccc2)CC1` [(R)-2-cyclohexyl-2-((3S,4S)-3-phenyl-4-((4-(propyl(pyrimidin-2-yl)amino)piperidin-1-yl)methyl)pyrrolidin-1-yl)acetic acid], for which the IC50 was 0.033 µM.

Turning to `O=C(C1CCCCC1)N1C[C@H](CN2CCC(N(CC3CC3)c3ccccn3)CC2)[C@@H](c2ccccc2)C1` [Cyclohexyl-{(3S,4S)-3-[4-(cyclopropylmethyl-pyridin-2-yl-amino)-piperidin-1-ylmethyl]-4-phenyl-pyrrolidin-1-yl}-methanone], half-maximal inhibition (IC50) required 0.033 µM. The same measure, in the same setting: under `CCCN(c1ccccn1)C1CCN(C[C@H]2CN(C(=O)C3CCC3)C[C@@H]2c2ccccc2)CC1` [cyclobutyl((3S,4S)-3-phenyl-4-((4-(propyl(pyridin-2-yl)amino)piperidin-1-yl)methyl)pyrrolidin-1-yl)methanone] stands 0.3 µM; under `CCCN(c1ccccn1)C1CCN(C[C@H]2CN(C(=O)c3ccccc3Cl)C[C@@H]2c2ccccc2)CC1` [(2-Chloro-phenyl)-{(3S,4S)-3-phenyl-4-[4-(propyl-pyridin-2-yl-amino)-piperidin-1-ylmethyl]-pyrrolidin-1-yl}-methanone], 0.3 µM.

Assay in another assay: as above
This is another data set of the same source.
`C=CCN(c1ccccn1)C1CCN(C[C@H]2CN(C(=O)C3CCCCC3)C[C@@H]2c2ccccc2)CC1` [{(3S,4S)-3-[4-(Allyl-pyridin-2-yl-amino)-piperidin-1-ylmethyl]-4-phenyl-pyrrolidin-1-yl}-cyclohexyl-methanone] had a 50% inhibitory concentration (IC50) of 0.011 µM. On the same count and under the same terms, the same measure for `O=C(O)[C@@H](CC1CCC1)N1C[C@H](CN2CCC(N(CC3CC3)c3ncccn3)CC2)[C@@H](c2cccc(F)c2)C1` [(R)-3-Cyclobutyl-2-[(3S,4S)-3-[4-(cyclopropylmethyl-pyrimidin-2-yl-amino)-piperidin-1-ylmethyl]-4-(3-fluoro-phenyl)-pyrrolidin-1-yl]-propionic acid]: 0.011 µM. Turning to `CCN(c1ncccn1)C1CCN(C[C@H]2CN([C@H](CC3CCC3)C(=O)O)C[C@@H]2c2cccc(F)c2)CC1` [(R)-3-Cyclobutyl-2-[(3S,4S)-3-[4-(ethyl-pyrimidin-2-yl-amino)-piperidin-1-ylmethyl]-4-(3-fluoro-phenyl)-pyrrolidin-1-yl]-propionic acid], half-maximal inhibition (IC50) was put at 0.1 µM. For `CCCN(c1ncccn1)C1CCN(C[C@H]2CN([C@H](CC3CCC3)C(=O)O)C[C@@H]2c2cccc(F)c2)CC1` [(R)-3-cyclobutyl-2-((3S,4S)-3-(3-fluorophenyl)-4-((4-(propyl(pyrimidin-2-yl)amino)piperidin-1-yl)methyl)pyrrolidin-1-yl)propanoic acid], half-maximal inhibition (IC50) was put at 0.011 µM. The same measure, in the same setting: under `CCCN(c1nccc(C(F)(F)F)n1)C1CCN(C[C@H]2CN([C@H](CC3CCC3)C(=O)O)C[C@@H]2c2cccc(F)c2)CC1` [(R)-3-Cyclobutyl-2-((3S,4S)-3-(3-fluoro-phenyl)-4-{4-[propyl-(4-trifluoromethyl-pyrimidin-2-yl)-amino]-piperidin-1-ylmethyl}-pyrrolidin-1-yl)-propionic acid] stands 0.45 µM. On the same count and under the same terms, under `CCCN(c1cncnc1)C1CCN(C[C@H]2CN([C@H](CC3CCC3)C(=O)O)C[C@@H]2c2cccc(F)c2)CC1` [(R)-3-Cyclobutyl-2-{(3S,4S)-3-(3-fluoro-phenyl)-4-[4-(propyl-pyrimidin-5-yl-amino)-piperidin-1-ylmethyl]-pyrrolidin-1-yl}-propionic acid] stands 0.011 µM.

In turn, `C=CCN(c1cccnc1)C1CCN(C[C@H]2CN(C(=O)C3CCCCC3)C[C@@H]2c2ccccc2)CC1` [{(3S,4S)-3-[4-(Allyl-pyridin-3-yl-amino)-piperidin-1-ylmethyl]-4-phenyl-pyrrolidin-1-yl}-cyclohexyl-methanone] showed an IC50 of 0.012 µM.

With `CCCN(c1ncc(F)cn1)C1CCN(C[C@H]2CN([C@H](CC3CCC3)C(=O)O)C[C@@H]2c2cccc(F)c2)CC1` [(R)-3-Cyclobutyl-2-((3S,4S)-3-(3-fluoro-phenyl)-4-{4-[(5-fluoro-pyrimidin-2-yl)-propyl-amino]-piperidin-1-ylmethyl}-pyrrolidin-1-yl)-propionic acid], 0.033 µM corresponded to half-maximal inhibition (IC50). With `CCCN(c1ncccn1)C1CCN(C[C@H]2CN([C@@H](C(=O)O)C3CCCCC3)C[C@@H]2c2cccc(F)c2)CC1` [(R)-Cyclohexyl-{(3S,4S)-3-(3-fluoro-phenyl)-4-[4-(propyl-pyrimidin-2-yl-amino)-piperidin-1-ylmethyl]-pyrrolidin-1-yl}-acetic acid], the IC50 came out at 0.033 µM. Compound `CCCN(c1cccnc1)C1CCN(C[C@H]2CN([C@@H](C(=O)O)C3CCCCC3)C[C@@H]2c2ccccc2)CC1` [(R)-Cyclohexyl-{(3S,4S)-3-phenyl-4-[4-(propyl-pyridin-3-yl-amino)-piperidin-1-ylmethyl]-pyrrolidin-1-yl}-acetic acid] had an IC50 of 0.033 µM. Compound `C=CCN(c1ccc(C(F)(F)F)cn1)C1CCN(C[C@H]2CN(C(=O)C3CCCCC3)C[C@@H]2c2ccccc2)CC1` [((3S,4S)-3-{4-[Allyl-(5-trifluoromethyl-pyridin-2-yl)-amino]-piperidin-1-ylmethyl}-4-phenyl-pyrrolidin-1-yl)-cyclohexyl-methanone] came in with a 50% inhibitory concentration (IC50) of 0.037 µM.

Compound `CCCN(c1ncc(C(F)(F)F)cn1)C1CCN(C[C@H]2CN([C@H](CC3CCC3)C(=O)O)C[C@@H]2c2cccc(F)c2)CC1` [(R)-3-Cyclobutyl-2-((3S,4S)-3-(3-fluoro-phenyl)-4-{4-[propyl-(5-trifluoromethyl-pyrimidin-2-yl)-amino]-piperidin-1-ylmethyl}-pyrrolidin-1-yl)-propionic acid] returned a half-inhibitory concentration (IC50) of 0.1 µM. Same read-out and setting: the same measure for `CCCN(c1nccc(OC)n1)C1CCN(C[C@H]2CN([C@H](CC3CCC3)C(=O)O)C[C@@H]2c2cccc(F)c2)CC1` [(R)-3-Cyclobutyl-2-((3S,4S)-3-(3-fluoro-phenyl)-4-{4-[(4-methoxy-pyrimidin-2-yl)-propyl-amino]-piperidin-1-ylmethyl}-pyrrolidin-1-yl)-propionic acid]: 0.1 µM.
